Assay results: a melting point compilation (Tetko et al.; mined from patent text by program, amines drawn as free bases though some values may be those of a salt)

SMILES	melting point
CC1=NN(c2cccc(S(N)(=O)=O)c2)C(=O)C1=c1[nH]c(=c2[nH]c(=C3C(=O)N(c4cccc(S(N)(=O)=O)c4)N=C3C)c3ccccc23)c2ccccc12	> 300 °C
O=C1CNC(=O)N1c1ccc([N+](=O)[O-])cc1	250 to 251 °C
Nc1ccc(CCC(=O)N2CCCCC2)cc1[N+](=O)[O-]	140 to 141 °C
O=C1NC2CCC1NC2=O	275 to 277 °C
CC(=O)OCC(COC(C)=O)NC(=O)c1cc(NC(=O)CCl)cc(C(=O)NC(COC(C)=O)COC(C)=O)c1	135 to 137 °C
CN1CC2=C(n3cnc(C#Cc4ccccc4)c3C1)S(=O)C=C2 (configuration not stated)	143 to 144 °C
COC(=O)NC=Cc1ccc(O)cc1	169 to 170 °C
Clc1nc(-c2cccnc2)sc1Br	114 to 115 °C
Cc1nc2scc(C)n2c(=O)c1CCN1CCC(Nc2nc3ccccc3n2Cc2ccc(F)cc2)CC1	141 °C
COc1ccc([N+](=O)[O-])cc1CN1CCNCCNCCNCC1	154 to 156 °C
O=C(Nc1ccc(Cl)cc1)Nc1ccc2c(c1)OC(F)(F)O2	231 to 233 °C
CSC(=S)NCCCN1CCN(c2ccccc2)CC1	75 to 79 °C
COC(=O)C(CC(=O)c1ccccc1)SC(C)=O (configuration not stated)	53.5 to 54 °C
O=C(c1cncc(Br)c1)N1CCC(=C2c3ccc(Cl)cc3CCc3cccnc32)CC1	87.5 to 96.4 °C
O=C(c1ccccc1)N1CCc2[nH]c3c(cnc4cc(Cl)ccc43)c2C1	275 °C
CC(NC(=S)NC(COC(=O)C(C)(C)C)Cc1ccccc1)c1ccc([N+](=O)[O-])cc1 (configuration not stated)	99 to 100 °C
Sc1nc2cnccc2[nH]1	> 320 °C
CC1Cc2cc3c(cc2C(c2ccc([N+](=O)[O-])cc2)=NN1C1=NCCO1)OCO3 (configuration not stated)	194 to 196 °C
O=C(Nc1ccc(Oc2ccnc(NC3CC3)n2)c2ccccc12)c1cc(F)cc(N2CCCCC2)c1	157 to 158 °C
CON=C(C(=O)O)c1cnsn1	99 to 100 °C
CCCCCCCCc1nc2c(N)nc3ccccc3c2n1CCOCCCc1ccccc1	104 °C
O=C(O)C(O)c1cccs1 (configuration not stated)	75 °C
CCCCS(=O)(=O)NCc1ccc(CCN2CCN(c3ccncc3)CC2)cc1	154 to 156 °C

SMILES	melting point
c1ccc(N=C(N=C(Nc2ccccc2)c2ccccc2)N2CCCC2)cc1	246 to 247 °C
NC(=O)CCCCCOc1ccc(C#Cc2ccc(C(=O)O)cc2)cc1C12CC3CC(CC(C3)C1)C2	269 to 270 °C
CC1(C)C(=O)Oc2ccc(Br)cc21	55 to 56 °C
NNC(=S)NN=Cc1ccco1	186 to 187 °C
O=[N+]([O-])c1ccc2c(c1)SC(c1ccc(Cl)cc1Cl)O2 (configuration not stated)	106 to 108 °C
CC(C)(C)C1CCC2(CC1)CC(O)(CNC1CCCCC1)CO2 (configuration not stated)	113 to 115 °C
O=C(Nc1cc(F)cc(F)c1)Oc1ccccc1	123 to 125 °C
CCCCCCCCCCCCCCCCCCc1nc2ncccc2o1	84 to 85 °C
C[C@@H]1NC(=O)O[C@H]1c1ccc(C(C)(C)C)cc1	199 to 200 °C
O=C(NCCN1CCC(O)(c2ccc(Cl)cc2)CC1)c1ccccc1Br	121 °C
O=C(Nc1cccc2ncccc12)N1CCN2C(=O)OC(c3ccccc3)(c3ccccc3)C2C1 (configuration not stated)	234 to 236 °C
CC(C)CCCC(C)C1CCC2C3CC=C4CC(OCCC#CCCOC(c5ccccc5)(c5ccccc5)c5ccccc5)CCC4(C)C3CCC12C (configuration not stated)	112 to 113 °C
CC1(C)Cc2ccc(C#N)cc2N(C(=O)NCc2ccccc2)C1	162 to 163 °C
O=C(CCN1C[C@@H](O)[C@H](Oc2ccccc2)C1)c1ccc(F)cc1 (relative stereo)	77 to 80 °C
N#CSc1ccc(C=O)cc1	82 to 83 °C
CC1CCCN(c2ccc(Cl)cc2C(C)C(C(N)=O)c2ccc(C(=O)O)cc2)C1 (configuration not stated)	208 to 210 °C
O=C(O)C=Cc1c(-c2ccccc2)nn2ccccc12	153 to 155 °C
CC1(C)OC(CS(=O)(=O)c2ccc(Cl)cc2)=CC1=O	112 to 113 °C
Cc1c2n(c(=O)n(Cc3ccccc3)c1=O)CCCS2	141 to 142 °C
CN1CCN(c2cc(Cl)cc3c2c(=O)n(Cc2ccc(F)cc2)c(=O)n3Cc2ccccc2)CC1	110 to 114 °C
CON(C)C(=O)c1cc2n(n1)CCC2	45 to 50 °C
N#Cc1cnn2c1N(C(=O)CN1CCN(C(=O)Nc3cccc(Cl)c3)CC1)CC=C2c1cccc(C(F)(F)F)c1	182 to 185 °C

Other lines, results leading:

melting point	SMILES
155 to 156 °C	CONC(=O)C(Oc1cc(OCc2ccsc2)ccc1C#N)c1ccccc1C (racemic)
161 °C	COC(=O)c1ccccc1S(=O)(=O)NC(=O)n1nc(Oc2ccccc2)n(C)c1=O
59 to 61 °C	CC1(C)c2cc(OS(C)(=O)=O)ccc2OC1Cl (configuration not stated)
43 to 44 °C	CCOC(=O)/C=C/c1cnn(C)c1
242 to 245 °C	O=C(O)COc1cc2c(=O)c3c(F)cccc3oc2cc1Cl
95 to 97 °C	CCOC(=O)N1CCC2=C(C1)SCC2(NC(=O)CN)C(=O)c1ccccc1Cl (configuration not stated)
140 °C	Cc1ccc(C(=O)Nc2cn(C3CCCCO3)nc2C(=O)NCCO)cn1 (configuration not stated)
255 to 258 °C	CCOC(=O)c1cnc2nc(C)c(OCC)cc2c1O
178 to 179 °C	CCOC(=O)c1ccc(-c2cnc3c(c2)N(Cc2ccccc2)CCN3)cc1
223 to 224 °C	CCOCc1nc2c(N)nc3ccccc3c2n1N1CCOCC1
87 to 90 °C	CCCCCS(=O)(=O)NCCCc1ccc(OCCOC)cc1Oc1ncc(C(F)(F)F)cc1Cl
151 to 152 °C	Cc1cc2c(c(C)c1NC(=O)CC(C)(C)C)C(c1ccc(C(C)C)cc1)CS2 (configuration not stated)
171 °C	O=C(OCc1ccccc1)c1cc2cc(Br)ccc2nn1
156 to 158 °C	Cc1nc2cc(NC(=O)c3ccco3)ccc2o1
47 to 48 °C	CCC(=NOc1ccc(F)cc1)c1cc(Cl)ccc1NS(=O)(=O)C(F)(F)F
104 °C	O=Cc1cc(OCc2ccccc2)c(OCc2ccccc2)cn1
89 to 91 °C	C#CCNC(=O)c1cccc(F)c1N
108 to 111 °C	CN(C)C(=O)c1cccnc1S(=O)(=O)Br
170 to 172 °C	CCOC(=O)c1cnn2c1nc(Cl)c1cnc3c(cnn3CC)c12

melting point	SMILES
149 to 153 °C	COc1cc(OC)nc(NC(=O)NS(=O)(=O)c2nc(C)cc3c2C(=O)OC3)n1
124 to 126 °C	CCOC(=O)C1=CC2(CCC1S(=O)(=O)Nc1ccc(F)cc1Cl)OC(CC)C(CC)(CC)O2 (configuration not stated)
> 260 °C	CNC(=O)CCn1cnc2c(N)nc3ccccc3c21
106 to 108 °C	Cc1cnc2nc(S(=O)(=O)Cl)nn2c1
119 to 121 °C	CC(=O)Nc1cccc(OCCCCC(=O)O)c1C=O
167 to 169 °C	CC(=O)Oc1ccccc1C(=O)Nc1nc(S(C)=O)cs1 (configuration not stated)
117 to 118 °C	CC(=O)c1nn[nH]c1-c1ccccc1
168 °C	CC(=O)OC1CSC(Oc2ccc3oc(C)nc3c2)C(OC(C)=O)C1OC(C)=O (configuration not stated)
85 to 86 °C	Cc1nc2ccc(Cl)cc2s1
177 to 179 °C	Cc1cc(C)cc(Sc2cncc3sc(C(N)=O)cc23)c1
209 °C	Cc1cc2cc(CN3CCCCCC3)cnc2cc1NC(=O)c1ccc(-c2ccc(Cl)cc2)cc1F
128 to 129 °C	CCOC(=O)C1=CC(c2cccc(C(F)(F)F)c2)=NN(C(=O)OCC)C1N1CCOCC1 (configuration not stated)
172 to 174 °C	CN(C)Cc1ccc2sc(S(N)(=O)=O)cc2c1
194 to 195 °C	Cc1sc(NS(=O)(=O)c2cccc(Cl)c2C)nc1CC(=O)N1CCOCC1
137 to 138 °C	CC(C)Cn1c(=O)n(C)c(=O)c2cc(Cc3cccc4ccccc34)sc21
81 °C	COC(=O)[C@@H]1CCCCN1S(=O)(=O)c1ccc(Cl)c(COc2cccc3c(-n4ccnc4)cc(C)nc23)c1Cl
153 to 155 °C	CC(=O)c1c(C)[nH]c(-c2ccccc2)c1N(C)C
208 to 210 °C	O=C(O)c1cccc(CC2COc3ccc(OCc4nc5cc(F)ccc5s4)cc3C2O)c1 (configuration not stated)
132 to 134 °C	CCC(C)(Oc1ccc(OCc2cc(-c3ccc(OCc4ccccc4)cc3)no2)cc1)C(=O)O (configuration not stated)

melting point	SMILES
152 to 154 °C	COc1ccc(-c2ccc(OC(CCC3=CCCCC3)C(=O)O)cc2)cc1 (configuration not stated)
135 to 136 °C	CCn1ncc2c(NCC3CCC(C(=O)OCSC)CC3)c3ccccc3nc21 (configuration not stated)
212 to 214 °C	COc1ccc(C=C(NC(C)=O)C(=O)O)cc1OC
195 to 200 °C	CCOC(=O)Cn1nc(-c2cc(Cl)ccc2O)nc1-c1cc(Cl)ccc1O
> 300 °C	Cn1cnc2nc(-c3cc(C(C)(C)C)c(O)c(C(C)(C)C)c3)nn2c1=S
138 to 139 °C	COC(=O)c1ccc([N+](=O)[O-])c(OCC(N)=O)c1
173 to 176 °C	CCc1ccc(-c2ccc3c(c2)C=C(C(=O)OC)CCS3(=O)=O)cc1
175 to 178 °C	COc1cc(OC)cc(-c2ncn(C)c2-c2ccc3c(c2)NCCO3)c1
> 255 °C	N#Cc1cnc2sc(Br)cc2c1O
156 °C	Cc1ccc(O)c(Cn2c(N)nc3ccc(CNc4cccc(OC(F)(F)F)c4)cc32)n1
104 to 106 °C	CCN(CC)CCCN1c2cc(C)c(C)cc2N(C)C(=O)c2c(C)cc(C)nc21
157 to 160 °C	COc1ccc(-c2ccc(C(CCC(=O)O)=NO)cc2)cc1
170 to 173 °C	Nc1sc(CCC(=O)O)cc1C(=O)c1ccccc1Cl
209 to 210 °C	O=C(CSc1nc2ccccc2[nH]1)c1ccc2[nH]c3ncc(Cl)cc3c2c1
148 to 149 °C	COc1ccc(-c2cnoc2-c2ccc(OC(C)C)cc2O)cc1
193 to 194 °C	CCCNC(=O)Nc1cc(C(C)(C)C)c2c(c1)C(C)(C)CO2
53 to 54 °C	CCOC(=O)CNC(=O)CC(O)CCl (configuration not stated)
248 °C	Cc1nc(Cl)c2c(c1O)COC2C (configuration not stated)
79 to 81 °C	CCOc1cc(OCCCc2cn(-c3cc(C(F)(F)F)ccn3)nc2OCC)ccc1CCC(=O)OC
